Data: patent publication US5338733A, “Isoxazolidinyl carbapenem derivative” (Shionogi Seiyaku Kabushiki Kaisha, priority 1992, dated 1994)
In brackets after ≈: the same amount, converted by molar mass. Counter-ions that a name gives are not always drawn. Like-named read-outs stand apart in the source and are kept apart here.

Columns and labels:
[1] = system: Staphylococcus aureus 209P; assay: MIC, Staphylococcus aureus 209P; format: cell-based; conditions: read-out: MIC (Minimal Inhibitory Concentration)
Protocol: (§1) The carbapenem compounds obtained in Examples 3, 5 and 8 were evaluated for antimicrobial activity, the integrated value of a concentration in blood (Area Under the Curve: AUC), recovery from urine and decomposition by human kidney dehydropeptidase-1 by using imipenem, meropenem and cephalosporin derivatives (A) and (B) as controls.
(§2) 1) MIC (Minimal Inhibitory Concentration) (γ/ml):
(§3) Antimicrobial activity was evaluated by using MIC.

[2] = system: Entercoccus SR1004; assay: MIC, Entercoccus SR1004; format: cell-based; conditions: read-out: MIC (Minimal Inhibitory Concentration)
Protocol: as §1, §2, §3

[3] = system: Pseudomonas aeruginosa SR1012; assay: MIC, Pseudomonas aeruginosa SR1012; format: cell-based
Protocol: as §1, §2, §3

[4] = in vivo; conditions: monkey, iv
[5] = in vivo; conditions: mouse, iv
Protocol: as §1
2) Concentration in Blood (γ/ml):
Each compound was intravenously injected into a mouse, and the concentration in the blood 15 minutes after the injection was measured.
3) Recovery from Urine (%):
Each compound was intravenously injected into a mouse and a monkey, and the content in the urine 24 hours after the injection was measured. A rate of recovery was obtained from the content.

[6] = system: Gram-positive bacteria and Gram-negative bacteria; assay: Antimicrobial activity against Gram-positive and Gram-negative bacteria (overall); format: cell-based; conditions: as compared with imipenem, meropenem and cephalosporin derivatives (A) and (B); in words
Protocol: as §1, §2, §3

[7] = in vitro; format: in vitro ADME, human; conditions: human, kidney dehydropeptidase-1
Protocol: as §1

[8] = system: human kidney dehydropeptidase-1; assay: in vitro; format: in vitro ADME
Protocol: as §1

[9] = Pseudomonas aeruginosa SR1012, read-out: MIC (Minimal Inhibitory Concentration)

| SMILES | MIC ([1]; Staphylococcus aureus 209P) [µg/mL] | MIC ([2]; Entercoccus SR1004) [µg/mL] | MIC [3, 9] [µg/mL] | AUC [4] [ng·h/mL] | AUC [5] [ng·h/mL] | concentration at 0.25 h [5] [ng/mL] | antimicrobial activity against Gram-positive bacteria and Gram-negative bacteria [6] | metabolised [7] [%] | hydrolysis rate in the body [8] | MIC ([1]; Staphylococcus aureus, 209P) [µg/mL] | MIC [2] [µg/mL] | MIC ([3]; Pseudomonas aeruginosa, SR1012, read-out: MIC (Minimal Inhibitory Concentration)) [µg/mL] |
| --- | --- | --- | --- | --- | --- | --- | --- | --- | --- | --- | --- | --- |
| CN1CCC(C2=C(C(=O)O)N3C(=O)C(NC(=O)C(=NO)c4csc(N)n4)C3SC2)O1 (stereo not drawn) [Cephalosporin (A)] | 0.78 (≈ 1.72 µM) | – | – | – | – | – | – | – | – | – | – | – |
| C[N+]1(C)CCC(C2=C(C(=O)[O-])N3C(=O)C(NC(=O)C(=NO)c4csc(N)n4)C3SC2)O1 (stereo not drawn) [Cephalosporin (B)] | 0.2 (≈ 0.427 µM) | – | – | – | – | – | – | – | – | – | – | – |
| C[C@H]1C([C@H]2CC[N+](C)(C)O2)=C(C(=O)[O-])N2C(=O)[C@H]([C@@H](C)O)C12 (stereo partly drawn) [Example 3, (1S,6S)-6-((R)-1-hydroxyethyl)-2-((5R)-2,2-dimethylisoxazolidinio-5-yl)-1-methyl-1-carba-2-penem-3-carboxylate] | 0.0125 (≈ 0.0403 µM) | 0.78 (≈ 2.51 µM) | 0.78 (≈ 2.51 µM) | 35200 | 19000 | 36300 | excellent antimicrobial activity | 97 | low hydrolysis rate | – | – | – |
| C[C@H]1C([C@@H]2CC[N+](C)(C)O2)=C(C(=O)[O-])N2C(=O)[C@H]([C@@H](C)O)C12 (stereo partly drawn) [Example 5, (1S,6S)-6-((R)-1-hydroxyethyl)-2-((5S)-2,2-dimethylisoxazolidinio-5-yl)-1-methyl-1-carba-2-penem-3-carboxylate] | 0.0125 (≈ 0.0403 µM) | 0.78 (≈ 2.51 µM) | 1.56 (≈ 5.03 µM) | – | – | – | excellent antimicrobial activity | – | low hydrolysis rate | – | – | – |
| C[C@H]1C([C@@H]2CCN(C)O2)=C(C(=O)O)N2C(=O)[C@H]([C@@H](C)O)C12 (stereo partly drawn) [Example 8, sodium (1S,6S)-6-((R)-l-hydroxyethyl)-1-methyl-2-((5S)-2-methylisoxazolidine-5-yl)-1-carba-2-penem-3-carboxylate salt] | 0.1 | – | – | – | – | – | excellent antimicrobial activity | – | low hydrolysis rate | – | – | – |
| C[C@@H](O)[C@H]1C(=O)N2C(C(=O)O)=C(SCCN=CN)C[C@H]12 [Imipenen, imipenem] | – | – | – | 13300 | 8800 | 20600 | – | 73 | – | 0.0125 (≈ 0.0418 µM) | 1.56 (≈ 5.21 µM) | 1.56 (≈ 5.21 µM) |
| C[C@@H](O)[C@H]1C(=O)N2C(C(=O)O)=C(S[C@@H]3CN[C@H](C(=O)N(C)C)C3)[C@H](C)[C@H]12 [Meropenen, meropenem] | 0.1 (≈ 0.261 µM) | 6.25 (≈ 16.3 µM) | 0.78 (≈ 2.03 µM) | 17200 | 5200 | 13700 | – | 87 | – | – | – | – |
